Consider 12 molecules from US10189863B2, “5,6-dihydro-4H-benzo[b]thieno-[2,3-d]azepine derivatives” (PULMOCIDE LIMITED, priority 2014, dated 2019).

For orientation: IC50 means the concentration that inhibits the measured activity by half. One may read the inhibition as the relative decrease from the control value, in per cent. Broadly, the CC50 is the concentration at which the toxic effect on the cells reaches its halfway point. Read a low CC50 as greater toxicity to the cells.

Like-named read-outs stand apart in the source and are kept apart here.

In one data set the test system is RSV A2 strain. Briefly: Assessment of RSV induced CPE in HEp2 cells (RSV A2 strain). It counts as cell-based. As to conditions: human respiratory syncytial virus; for IC50: HEp-2, 120 h; for inhibition at 0.01 µg/mL: Inhibition (%) at 0.01 μg/mL. As to the method: (§1) Assessment of RSV Induced CPE in HEp2 Cells
(§2) HEp2 cells were seeded (10^3/well/50 μL) in 384-well plates (Catalogue number 353962, BD Falcon, Oxford, UK) in […] containing 2 mM L-glutamine and 1 mM sodium pyruvate one day before infection. RSV A2 strain (#0709161v, NCPV, Public Health England, Wiltshire) or RSV B Washington strain (VR-1580, ATCC, Manassas, Va. 20108) virus solutions were prepared in serum free-DMEM with 2 mM L-glutamine and 1 mM sodium pyruvate, and then added (50 μL/well) to achieve a final virus concentration of 1 MOI. Simultaneously test compounds (0.5 μL DMSO solution) were added to 100 μL of HEp2 cell culture with virus solution to provide a final DMSO solution of 0.5%. Plates were incubated (37° C./5% CO2) for 5 days for studies using RSV A2 strain or 6 days for those using RSV B strain, and then resazurin sodium salt (5 μL of 0.03% solution; Sigma-Aldrich, Dorset, UK) was added to each well and the plate incubated for a further 6 hr (37° C./5% CO2). The fluorescence of each well [545 nm (excitation)/590 nm (emission)] was determined using a multi-scanner (Clariostar: BMG, Buckinghamshire, UK). The percentage inhibition for each well was calculated and the IC50, IC75 and IC90 values were calculated from the concentration-response curve generated for each test compound.

The test system of the next data set is RSV B Washington strain. Briefly: Assessment of RSV induced CPE in HEp2 cells (RSV B Washington strain). As to conditions: human respiratory syncytial virus; for IC50: HEp-2, 144 h. It counts as cell-based. How it is done: as §1, §2
The nature of data set [1]: Cell viability: resazurin assay. The class given is cell-based, human. As to conditions: human, HEp2 cells. As to the method: Cell Viability: Resazurin Assay
HEp2 cells were seeded in 384-well plates (10^3/well/50 μL; BD Falcon Ref 353962) in FBS DMEM (5%, containing 2 mM L-glutamine and 1 mM sodium pyruvate) one day before experimentation. Serum-free DMEM (50 μL) was added to test wells while for control wells the media was removed and sterile water (100 μL) was added. Test compounds (0.5 μL DMSO solution) were added to give a final DMSO concentration of 0.5%. Hep2 cells were incubated with each test compound for 5 days (37° C./5% CO2 in 5% FBS) and then resazurin stock solution (5 μL; 0.03%) was added to each well and the plate incubated for a further 6 hr (37° C./5% CO2). The fluorescence of each well at 545 nm (excitation) and 590 nm (emission) was determined using a multi-scanner (Clariostar: BMG Labtech). The percentage loss of cell viability was calculated for each well relative to vehicle (0.5% DMSO) treatment.
Any apparent increase in cell viability associated with test compound treatment relative to vehicle is consequently tabulated as a negative percentage. Where appropriate, a CC50 value was calculated from the concentration-response curve generated from the concentration-response curve for each test compound.
A general note: Alamar Blue is a resazurin reagent that responds to reducing activity.

Where [2] appears, read: HEp2 cells, 1 MOI, 5 days, read-out: RSV A2 CPE IC50.
Setting [3] is: HEp-2, HEp2 cells, Inhibition (%) at 0.1 μg/mL, read-out: RSV A2 CPE % Inhibition.
[4] abbreviates: HEp2 cells, 1 MOI, 6 days, read-out: RSV B CPE IC50.
[5] abbreviates: HEp-2, HEp2 cells, Inhibition (%) at 1 μg/mL, read-out: RSV B CPE % Inhibition.

Take `O=C(Nc1ccccc1)c1cc2c(s1)-c1ccccc1N(C(=O)c1ccc(NC(=O)c3cccnc3N3CC4(CCOCC4)C3)cc1)CC2` [Example 1, 6-(4-(2-(7-oxa-2-azaspiro[3.5]nonan-2-yl)nicotinamido)benzoyl)-N-phenyl-5,6-dihydro-4H-benzo[b]thieno[2,3-d]azepine-2-carboxamide]: the IC50 in the data set with RSV A2 strain (read-out: RSV A2 CPE IC50 (nM)) came out at 0.5 nM; in the data set with RSV B Washington strain (read-out: RSV B CPE IC50 (nM)), 166 nM. The inhibition at 0.1 µg/mL with RSV A2 strain (HEp-2, read-out: RSV A2 CPE % Inhibition) came out at 98%. Moreover, the inhibition at 1 µg/mL with RSV B Washington strain (HEp-2, read-out: RSV B CPE % Inhibition) came out at 77%. Further, the CC50 at 5 days in data set [1] was above 14900 nM.
Consider `O=C(Nc1ccc(F)cc1F)c1cc2c(s1)-c1ccccc1N(C(=O)c1ccc(NC(=O)c3cccnc3N3CC4(CCOCC4)C3)cc1)CC2` [Example 20, 6-(4-(2-(7-oxa-2-azaspiro[3.5]nonan-2-yl)nicotinamido)benzoyl)-N-(2,4-difluorophenyl)-5,6-dihydro-4H-benzo[b] thieno[2,3-d]azepine-2-carboxamide], for which the figures for the IC50 with RSV A2 strain (setting [2]) and with RSV B Washington strain (setting [4]) were 0.36 nM and 129 nM, respectively. In the data set on RSV A2 strain (setting [3]), the inhibition at 0.1 µg/mL is 100%. Also, the inhibition at 1 µg/mL with RSV B Washington strain (setting [5]) came to 80%. This molecule also returned a 50% cytotoxic concentration (CC50) at 5 days in data set [1] above 14200 nM.
Turning to `O=C(Nc1c(F)cccc1Cl)c1cc2c(s1)-c1ccccc1N(C(=O)c1ccc(NC(=O)c3cccnc3N3CC4(CCOCC4)C3)cc1F)CC2` [Example 31, 6-(4-(2-(7-oxa-2-azaspiro[3.5]nonan-2-yl)nicotinamido)-2-fluorobenzoyl)-N-(2-chloro-6-fluorophenyl)-5,6-dihydro-4H-benzo[b]thieno[2,3-d]azepine-2-carboxamide], the IC50 with RSV A2 strain (setting [2]) is 0.1 nM; in the data set with RSV B Washington strain (setting [4]), 49.6 nM. Moreover, in the data set on RSV A2 strain (setting [3]), the inhibition at 0.1 µg/mL is 100%. In addition, in the data set on RSV B Washington strain (setting [5]), the inhibition at 1 µg/mL amounted to 90%. In data set [1], this molecule yielded a CC50 at 5 days above 13500 nM.
`Cc1cnc(N2CCC3(CC2)COC3)c(C(=O)Nc2ccc(C(=O)N3CCc4cc(C(=O)Nc5c(F)cccc5C(F)(F)F)sc4-c4ccccc43)cc2)c1` [Example 94, N-(2-fluoro-6-(trifluoromethyl)phenyl)-6-(4-(5-methyl-2-(2-oxa-7-azaspiro[3.5]nonan-7-yl)nicotinamido)benzoyl)-5,6-dihydro-4H-benzo[b]thieno[2,3-d]azepine-2-carboxamide]: the IC50 in the data set with RSV A2 strain (setting [2]) turned out to be 1.4 nM; in the data set with RSV B Washington strain (setting [4]), 811 nM. Further, in the data set on RSV A2 strain (HEp-2, HEp2 cells), testing at 0.01 µg/mL gave an inhibition of 100%. In addition, in the data set with RSV B Washington strain (setting [5]), the inhibition at 1 µg/mL is 54%. In data set [1], this molecule returned a CC50 at 5 days above 13000 nM.
As for `C#Cc1cccc(F)c1NC(=O)c1cc2c(s1)-c1ccccc1N(C(=O)c1ccc(NC(=O)c3cc(C)cnc3N3CC4(CCOCC4)C3)cc1)CC2` [Example 37, N-(2-ethynyl-6-fluorophenyl)-6-(4-(5-methyl-2-(7-oxa-2-azaspiro[3.5]nonan-2-yl)nicotinamido)benzoyl)-5,6-dihydro-4H-benzo[b]thieno[2,3-d]azepine-2-carboxamide], the IC50 in the data set with RSV A2 strain (setting [2]) was found to be 0.15 nM; with RSV B Washington strain (setting [4]), 7.2 nM. Also, in the data set on RSV A2 strain (HEp-2, HEp2 cells), at 0.01 µg/mL the inhibition was 100%. Moreover, the inhibition at 1 µg/mL in the data set with RSV B Washington strain (setting [5]) came out at 100%. Further, the CC50 at 5 days in data set [1] is above 13800 nM.
Turning to `Cc1cnc(N2CC3(CCOCC3)C2)c(C(=O)Nc2ccc(C(=O)N3CCc4cc(C(=O)Nc5c(F)cccc5OCCO)sc4-c4ccccc43)cc2)c1` [Example 54, N-(2-fluoro-6-(2-hydroxyethoxy)phenyl)-6-(4-(5-methyl-2-(7-oxa-2-azaspiro[3.5]nonan-2-yl)nicotinamido)benzoyl)-5,6-dihydro-4H-benzo[b]thieno[2,3-d]azepine-2-carboxamide], the IC50 turned out to be 1.5 nM in the data set with RSV A2 strain (setting [2]) and 89.8 nM in the data set with RSV B Washington strain (setting [4]). For the same molecule, the inhibition at 0.01 µg/mL with RSV A2 strain (HEp-2, HEp2 cells) was 100%. Moreover, the inhibition at 1 µg/mL in the data set with RSV B Washington strain (setting [5]) stood at 100%. The molecule further had a CC50 at 5 days in data set [1] above 13100 nM.
Turning to `Cc1cnc(N2CC3(CCOCC3)C2)c(C(=O)Nc2ccc(C(=O)N3CCc4cc(C(=O)Nc5c(O)cccc5F)sc4-c4ccccc43)cc2)c1` [Example 52, N-(2-fluoro-6-hydroxyphenyl)-6-(4-(5-methyl-2-(7-oxa-2-azaspiro[3.5]nonan-2-yl)nicotinamido)benzoyl)-5,6-dihydro-4H-benzo[b]thieno[2,3-d]azepine-2-carboxamide], the IC50 in the data set on RSV A2 strain (setting [2]) stood at 0.067 nM; in the data set with RSV B Washington strain (setting [4]), 3.3 nM. The inhibition at 0.1 µg/mL in the data set with RSV A2 strain (setting [3]) came to 96%. Also, the inhibition at 1 µg/mL in the data set with RSV B Washington strain (setting [5]) was 100%. In data set [1], this molecule returned a CC50 at 5 days above 13900 nM.
With `COc1ccc(NC(=O)c2cc3c(s2)-c2ccccc2N(C(=O)c2ccc(NC(=O)c4cccnc4N4CC5(CCOCC5)C4)cc2)CC3)c(F)c1` [Example 23, 6-(4-(2-(7-oxa-2-azaspiro[3.5]nonan-2-yl)nicotinamido)benzoyl)-N-(2-fluoro-4-methoxyphenyl)-5,6-dihydro-4H-benzo[b]thieno[2,3-d]azepine-2-carboxamide], the IC50 in the data set with RSV A2 strain (setting [2]) worked out at 1.1 nM; with RSV B Washington strain (setting [4]), 16.3 nM. In addition, in the data set on RSV A2 strain (setting [3]), the inhibition at 0.1 µg/mL came out at 100%. Besides, in the data set with RSV B Washington strain (setting [5]), the inhibition at 1 µg/mL came out at 55%. The molecule also came in with a CC50 at 5 days in data set [1] above 13900 nM.
For `Cc1ccc(C(=O)Nc2ccc(C(=O)N3CCc4cc(C(=O)Nc5c(F)cccc5F)sc4-c4ccccc43)cc2)c(N2CC3(CCOCC3)C2)n1` [Example 49, N-(2,6-difluorophenyl)-6-(4-(6-methyl-2-(7-oxa-2-aza-spiro[3.5]nonan-2-yl)nicotinamido)benzoyl)-5,6-dihydro-4H-benzo[b]thieno[2,3-d]azepine-2-carboxamide], the IC50 in the data set with RSV A2 strain (setting [2]) was 0.13 nM; with RSV B Washington strain (setting [4]) it was 1.3 nM. Also, the inhibition at 0.1 µg/mL in the data set on RSV A2 strain (setting [3]) was 100%. Moreover, the inhibition at 1 µg/mL in the data set with RSV B Washington strain (setting [5]) is 100%. Also, in data set [1], the CC50 at 5 days is above 13900 nM.
For the molecule `Cc1ccc(C(=O)Nc2ccc(C(=O)N3CCc4cc(C(=O)Nc5c(F)cccc5Cl)sc4-c4ccccc43)cc2)c(N2CC3(CCOCC3)C2)n1` [Example 41, N-(2-chloro-6-fluorophenyl)-6-(4-(6-methyl-2-(7-oxa-2-azaspiro[3.5]nonan-2-yl)nicotinamido)benzoyl)-5,6-dihydro-4H-benzo[b]thieno[2,3-d]azepine-2-carboxamide], the results for the IC50 in the data set on RSV A2 strain (setting [2]) and with RSV B Washington strain (setting [4]) were 0.11 nM and 15.4 nM, respectively. Also, the inhibition at 0.1 µg/mL in the data set with RSV A2 strain (setting [3]) is 100%. In addition, the inhibition at 1 µg/mL with RSV B Washington strain (setting [5]) was determined as 79%. In data set [1], this molecule gave a CC50 at 5 days above 13600 nM.
The corresponding values for `O=C(Nc1ccccc1F)c1cc2c(s1)-c1ccccc1N(C(=O)c1ccc(NC(=O)c3cc4ccccc4nc3N3CC4(CCOCC4)C3)cc1)CC2` [Example 84, 6-(4-(2-(7-oxa-2-azaspiro[3.5]nonan-2-yl)quinoline-3-carboxamido)benzoyl)-N-(2-fluorophenyl)-5,6-dihydro-4H-benzo[b]thieno[2,3-d]azepine-2-carboxamide] are 0.13 nM, 11 nM, 97%, 68% and above 13600 nM.
The matching figures for `Cc1cnc(N2CC3(CCOCC3)C2)c(C(=O)Nc2ccc(C(=O)N3CCc4cc(C(=O)Nc5c(F)cccc5C#N)sc4-c4ccccc43)cc2)c1` [Example 51, N-(2-cyano-6-fluorophenyl)-6-(4-(5-methyl-2-(7-oxa-2-azaspiro[3.5]nonan-2-yl)nicotinamido)benzoyl)-5,6-dihydro-4H-benzo[b]thieno[2,3-d]azepine-2-carboxamide]: 1.1 nM, 10.1 nM, 98%, 99% and above 13800 nM.
